Source: patent US20230348483A1, “PREPARATION METHOD FOR (S)-2-AMINO-3-(4-(2,3-DIMETHYLPYRIDIN-4-YL)PHENYL)METHYL PROPIONATE DIACID SALT” (Hangzhou Zhongmei Huadong Pharmaceutical Co., Ltd., priority 2020, published 2023)

Legend:
[1] = Hygroscopicity and deterioration of compound IV as found by the researchers; assay type: physicochemical; details: solid, storage and transport
[2] = Stability test of salt forms at temperature 40° C. and humidity 75% (HPLC chemical purity, physical properties); assay type: physicochemical; details: for Appearance / Hygroscopicity / Purity (%): 40° C./75% placement for 1 day; for Purity (%) / Initial purity: chemical purity by HPLC; for Initial purity: before placement
Method: Compare the properties of the desired salts of compound V, includes but not limits to as herein oxalate or phosphate, to hydrochloride. Conduct the stability test under the condition of temperature 40° C. and humidity 75%, measure the chemical purity by HPLC and observe the physical properties.

Row | Deterioration (storage stability) [1] | Hygroscopicity [1] | Appearance [2] | Hygroscopicity [2] | Purity (%) [2] | Initial purity [2] | SMILES
1 | easily to be deteriorated | highly hygroscopic | Yellow solid | Strong | 87.5% | 95.1 | COC(=O)[C@@H](N)Cc1ccc(-c2ccnc(C)c2C)cc1.Cl.Cl [Hydrochloride, methyl (S)-2-amino-3-[4-(2,3-dimethylpyridin-4-yl)-phenyl]-propionate dihydrochloride]
2 | – | – | White powder | Almost none | 99.0% | 99.1 | COC(=O)[C@@H](N)Cc1ccc(-c2ccnc(C)c2C)cc1.O=C(O)C(=O)O.O=C(O)C(=O)O [Oxalate, methyl (S)-2-amino-3-[4-(2,3-dimethylpyridin-4-yl)-phenyl]-propionate diacid salt]
3 | – | – | White to light | Slight | 96.1% | 98.5 | COC(=O)[C@@H](N)Cc1ccc(-c2ccnc(C)c2C)cc1.O=C(O)C(=O)O.O=C(O)C(=O)O [Phosphate, methyl (S)-2-amino-3-[4-(2,3-dimethylpyridin-4-yl)-phenyl]-propionate diacid salt]
